Results as given in patent publication US20250250582A1, “Plant Cells and Plants Modified to Increase Herbicide Resistance and Stress Tolerance and Methods of Using the Same” (The Board of Trustees of the University of Arkansas, priority 2018, published 2025).
“And” between values parts separate entries of the source, which are not always exact repeats. Equal entries are not always repeated.

Assays:
[1] = tested on: multiple-resistant E. colona (ECO-R); assay: RNA-sequencing differential gene expression, herbicide-treated vs nontreated ECO-R; conditions: 24 h
From the text: Pure-line generated seed of each accession were germinated in pots containing potting soil within a temperature/light controlled growth chamber set to a 14-hr day length, 33 C day temperature, and 24 C night time to simulate environmental conditions early in the rice growing season. A single plant was maintained in each of the pots and used for the treatments; two pots were used as individual biological replicates. […] Pots for each of the respective treatments were labeled as either ECO-R/S-T for the treated samples and ECO-R/S-N for the non-treated counterpart. To minimize the effect that the sprayer may play in the application, both plants of the ECO-R and ECO-S were treated at the same time. After approximately 30 minutes, allowing for the plants to dry, the treated and non-treated plants of both accessions were moved back into the growth chamber. Precisely 24-hours after application, the aboveground portion of each of the plants were removed and immediately frozen in liquid nitrogen to cease all biological function. Samples were then transferred to RNAlater™-ICE (Invitrogen, Carlsbad CA, USA) for shipment to the Clemson University Genomics Institute (CUGI), in Clemson, South Carolina.
RNA was extracted from the young leaf tissues of both replications for the ECO-R and ECO-S, T and N samples, at Clemson University. Total RNA was extracted with a kit according to the manufactures instructions. The extracted RNA was treated with DNase (Invitrogen, Calsbad, CA, USA) to remove any DNA contamination prior to further processing. The samples were prepared for sequencing by CUGI. For library preparation, the TruSeq Stranded Total RNA kit (Illumina Inc., San Diego, CA, USA) was used according to the instructions provided by the manufacturer to produce a paired-end library for sequencing. Ribosomal RNA was removed using target-specific oligonucleotides paired with rRNA removal beads, removing all cytoplasmic and mitochondrial rRNA that may result in poor quality results. RNA was fragmented and reverse transcribed to cDNA using random primers, followed by a second strand cDNA synthesis. Each fragment is then ligated with an additional ‘A’ and an adapter for sequencing. The PCR enriched product is then used to create the final cDNA library. All samples were sequenced on an Illumina Hiseq 2500 platform housed in the Holdings Cancer Center at the Medical University of South Carolina, Charleston, SC, USA. Samples, regardless of treatments or replication were ran across three lanes to reduce sequencing errors from the equipment. The resulting data were processed by CUGI.
A de novo transcriptome was assembled from the treatments described for this experiment as well as several treatments, which included herbicides profiled in ECO-R. The treatments were applied to both ECO-R and ECO-S samples with two replications as described previously. In total, 20 individual plants, from both the ECO-R and ECO-S accessions, as well as T and NT samples, were used for the assembly. The transcriptome was assembled using the Trinity RNA-Seq pipeline (Broad Institute, Cambridge, MA, USA). Raw data were assessed for quality using FastQC (Babraham Institute, Cambridge, UK) and then processed to remove adapter sequences and low quality bases using a sliding window method. The processed data were then rerun using FastQC to ensure high quality reads. Using the TrinityRNASeq 2.2.0 software, the samples were normalized, by replication, using a coverage size of 100 and kmer of 32. The normalized reads were then assembled as transcripts and genes using Trinity with the stranded library set as the default.

[2] = tested on: susceptible E. colona (ECO-S); assay: Herbicide resistance profile of ECO-S; format: in vivo, Echinochloa colona
From the text: Beginning in 2010, through the 2016 cropping cycle, Echinochloa spp. from throughout the rice producing counties of Arkansas, USA, located along the Mississippi River were sampled for a survey of the current status of herbicide resistance. Seeds were bulk sampled from plants that had matured in rice and soybean production fields, which had survived at least one herbicide application, were collected and sent to the University of Arkansas Altheimer Laboratory in Fayetteville for characterization and evaluation of herbicide resistance to common rice herbicides. […] From this screening program, two populations of E. colona were selected for use in this experiment. […] To establish inbred and homozygous accessions for the experiment, a single plant, verified as resistant/susceptible of ECO-R and ECO-S were grown in isolation to produce seed for further experiments.
Accession source and population profiling. From 2010 to 2016, the University of Arkansas weed physiology group has been collecting putative herbicide-resistant Echinochloa populations from rice production fields throughout the state of Arkansas. […] Collections took place in the late summer to early fall prior to rice harvest; these accessions were bulk sampled by in-field location and farm, with field histories collected when possible. […]

[3] = tested on: susceptible E. colona standard; assay: Determination of resistance level (visual injury), susceptible plants; conditions: 2 X dose, visual 3 wk after treatment

SMILES: CCC(=O)Nc1ccc(Cl)c(Cl)c1 [propanil]
- ABC transporter C family member 10 Fold Change ([1]; ECO-R-T vs ECO-R-N): 7.4 fold
- ACC oxidase fold change ([1]; ECO-R-T vs ECO-R-N): −4.5 fold
- ACCase 2 fold change ([1]; ECO-R-T vs ECO-R-N): −10.2 fold
- ACCase fold change ([1]; ECO-R-T vs ECO-R-N): −9.7 fold
- ADP sugar pyrophosphatase fold change ([1]; ECO-R-T vs ECO-R-N): −7.2 fold
- Beta-glucosidase 22 fold change ([1]; ECO-R-T vs ECO-R-N): 3.6 fold
- CYP72A11 Fold Change ([1]; ECO-R-T vs ECO-R-N): 3.1 fold
- CYP72A13 Fold Change ([1]; ECO-R-T vs ECO-R-N): 3.8 fold
- CYP72A15 Fold Change ([1]; ECO-R-T vs ECO-R-N): 2.6 fold and 3.4 fold and 2.9 fold
- CYP89A2 Fold Change ([1]; ECO-R-T vs ECO-R-N): 2.5 fold and 3.8 fold and 3.6 fold
- CYP709B1 Fold Change ([1]; ECO-R-T vs ECO-R-N): 7.0 fold
- ERF7 fold change ([1]; ECO-R-T vs ECO-R-N): 6.7 fold
- ERF060 fold change ([1]; ECO-R-T vs ECO-R-N): 2.1 fold
- GST23 Fold Change ([1]; ECO-R-T vs ECO-R-N): 6.7 fold
- GSTU17 fold change ([1]; ECO-R-T vs ECO-R-N): 7.9 fold
- NADH-cytochrome b5 reductase proteins fold change ([1]; ECO-R-T vs ECO-R-N): < −7.4 fold
- NADP-dependent malic enzyme fold change ([1]; ECO-R-T vs ECO-R-N): −9.3 fold
- Stress enhanced protein 2 fold change ([1]; ECO-R-T vs ECO-R-N): 2.5 fold
- UGT73C2 Fold Change ([1]; ECO-R-T vs ECO-R-N): 4.7 fold
- UGT73D1 fold change ([1]; ECO-R-T vs ECO-R-N): 5.3 fold and 6.9 fold and 4.8 fold
- UGT73E1 fold change ([1]; ECO-R-T vs ECO-R-N): 3.0 fold
- UGT74G1 Fold Change ([1]; ECO-R-T vs ECO-R-N): 4.6 fold and 4.5 fold
- UGT75D1 fold change ([1]; ECO-R-T vs ECO-R-N): 7.4 fold
- UGT83A1 Fold Change ([1]; ECO-R-T vs ECO-R-N): 2.3 fold
- acetyl-coenzyme A synthetase fold change ([1]; ECO-R-T vs ECO-R-N): −8.4 fold
- disease resistance protein RPM1 fold change ([1]; ECO-R-T vs ECO-R-N): 7.1 fold
- ferredoxin 6 fold change ([1]; ECO-R-T vs ECO-R-N): < −2.4 fold
- fructose-1,6-bisphosphatase fold change ([1]; ECO-R-T vs ECO-R-N): −9.3 fold
- glutamine synthetase fold change ([1]; ECO-R-T vs ECO-R-N): −10.5 fold
- malate dehydrogenase fold change ([1]; ECO-R-T vs ECO-R-N): −10.8 fold
- peroxidase 5 fold change ([1]; ECO-R-T vs ECO-R-N): −3.1 fold
- phenolic glucoside malonyltransferase 1 fold change ([1]; ECO-R-T vs ECO-R-N): −3.5 fold
- pyruvate dehydrogenase E1 subunit fold change ([1]; ECO-R-T vs ECO-R-N): < −10.4 fold
- pyruvate phosphate dikinase fold change ([1]; ECO-R-T vs ECO-R-N): −12 fold
- ubiquinol cytochrome-c reductase complex core protein fold change ([1]; ECO-R-T vs ECO-R-N): < −8.6 fold
- ATP synthase subunit(s) fold change ([1]; ECO-R-T vs ECO-R-N, repressed): < −10 fold
- TPS6 repression ([1]; ECO-R-T vs ECO-R-N, repressed): 6.1 fold
- sugar transporter ERD6-like 8 repression ([1]; ECO-R-T vs ECO-R-N, repressed): 4.2 fold
- sugar transporter SWEET2a repression ([1]; ECO-R-T vs ECO-R-N, repressed): 3.8 fold
- heat shock proteins fold change ([1]; ECO-R-T vs ECO-R-N, repressed by as much as): ≤ −9.9 fold
- CYP72A14 fold induction ([1]; Echinochloa colona, in vivo): ~3 fold
- tolerance observed ([2]; ECO-S (Example 1)): approximately twice
- tolerance observed ([2]; ECO-S (Example 2)): ~3 × field dose
- susceptible plants killed [3]: 100%
